According to patent publication US8309563B2, “Quinazoline derivatives useful as anti-tumor medicament” (Shanghai Allist Pharmaceuticals, Inc., priority 2006, dated 2012):
Like-named read-outs stand apart in the source and are kept apart here.

What was measured:
[1] = test system: human skin squamous cancer cell A431 grafted in a nude mouse; assay: Anti-tumor effect on human skin squamous cancer cell A431 grafted in a nude mouse; assay type: in vivo
Description: A well-growth solid tumor of A431 was selected and incised into several pieces with the size of 2-3 mm; each was grafted into the right armpit of a mouse subcutaneously with a trocar respectively. 5 After 7days, the test compounds were administrated by gastric perfusion through the mouth for 13 days continuously. The long span (a) and the short span (b) of the tumor were measured with a vernier caliper every 4 days. According to the formula V=ab^2/2, the volume (mm^3) of the tumor could be calculated. The test animals were neck-off killed 23 days after the grafting. The test animals were anatomized to obtain the tumor. The tumors were weighed and the inhibitory rate was calculated.

[2] = test system: A431 cells (human epidermoid squamous carcinoma cell); assay: Anti-tumor experiment, improved MTT method, A431 cells, 72 h; assay type: cell-based
Description: The inventive compounds were formulated into 5 concentrations. […] The incubation was continued for another 6 h, and 100 μl SDS was added to end the reaction.
1. Cell Line: A431 Human Epidermoid Squamous Carcinoma Cell

[3] = test system: BT-474: Human Breast Cancer Cell; assay: Inhibition of cell proliferation, SRB method, BT-474 cells, 5 days; assay type: cell-based; conditions: 120 h, Logit method, read-out: BT474 IC50
Description: 2. Cell Line: BT-474: Human Breast Cancer Cell The cells were incubated with compounds of various concentrations (10-0.001 μm individually) for 5 days. The inhibition of cell proliferation was tested according to the SRB method, and the inhibitory rate was figure out. According to the inhibitory rate, the IC50 was calculated by the Logit method. The anti-tumor activities in vitro were compared.

Erb-B2 = target: T1, Erb-B2 (Homo sapiens, UniProt P04626); assay: Inhibitory effect on the phosphorylation activity of Erb-B2 in BT474 cells (SDS-PAGE/blot, ECL); assay type: cell-based; conditions: BT474 cells treated […]; FIG. 1; comparison with Iressa
T1 construct: After treated with various compounds for 1.5 h, the cells were collected, cracked; endogenous in cells; host or cells: BT474 human breast cancer cells
Description: The inhibitory effect of compound 8 and compound 14 on the phosphorylation activity of Erb-B2: The concentration of the human breast cancer cells BT474 were adjusted to a suitable concentration, and inoculated into a plate. After treated with various compounds for 1.5 h, the cells were collected, cracked and the protein was adjusted to the same quantity. Following the protein-denaturation, SDS-PAGE was conducted, and transferred to nitric acid cellulose film; Hybriding with the anti-phosphorylation antibody (mono-anti), anti-β-tublin antibody (mono-anti) and anti-mouse-IgG antibody (bi-anti) respectively; Assayed by the ECL kit and the X-ray plate was exposed. According to the size and the density of the corresponding protein band, the inhibitory effect on Erb-B2 kinases can be evaluated.

[4] = A431 cells, * = two results from two experiments, read-out: A431 IC50
[5] = Homo sapiens, A-431, 72 h, A431 cells, 72 h, class symbols, read-out: IC50
[6] = Homo sapiens, A-431, A431 cells, * = two results from two experiments, read-out: A431 IC50

T1 sequence (P04626 23-1255): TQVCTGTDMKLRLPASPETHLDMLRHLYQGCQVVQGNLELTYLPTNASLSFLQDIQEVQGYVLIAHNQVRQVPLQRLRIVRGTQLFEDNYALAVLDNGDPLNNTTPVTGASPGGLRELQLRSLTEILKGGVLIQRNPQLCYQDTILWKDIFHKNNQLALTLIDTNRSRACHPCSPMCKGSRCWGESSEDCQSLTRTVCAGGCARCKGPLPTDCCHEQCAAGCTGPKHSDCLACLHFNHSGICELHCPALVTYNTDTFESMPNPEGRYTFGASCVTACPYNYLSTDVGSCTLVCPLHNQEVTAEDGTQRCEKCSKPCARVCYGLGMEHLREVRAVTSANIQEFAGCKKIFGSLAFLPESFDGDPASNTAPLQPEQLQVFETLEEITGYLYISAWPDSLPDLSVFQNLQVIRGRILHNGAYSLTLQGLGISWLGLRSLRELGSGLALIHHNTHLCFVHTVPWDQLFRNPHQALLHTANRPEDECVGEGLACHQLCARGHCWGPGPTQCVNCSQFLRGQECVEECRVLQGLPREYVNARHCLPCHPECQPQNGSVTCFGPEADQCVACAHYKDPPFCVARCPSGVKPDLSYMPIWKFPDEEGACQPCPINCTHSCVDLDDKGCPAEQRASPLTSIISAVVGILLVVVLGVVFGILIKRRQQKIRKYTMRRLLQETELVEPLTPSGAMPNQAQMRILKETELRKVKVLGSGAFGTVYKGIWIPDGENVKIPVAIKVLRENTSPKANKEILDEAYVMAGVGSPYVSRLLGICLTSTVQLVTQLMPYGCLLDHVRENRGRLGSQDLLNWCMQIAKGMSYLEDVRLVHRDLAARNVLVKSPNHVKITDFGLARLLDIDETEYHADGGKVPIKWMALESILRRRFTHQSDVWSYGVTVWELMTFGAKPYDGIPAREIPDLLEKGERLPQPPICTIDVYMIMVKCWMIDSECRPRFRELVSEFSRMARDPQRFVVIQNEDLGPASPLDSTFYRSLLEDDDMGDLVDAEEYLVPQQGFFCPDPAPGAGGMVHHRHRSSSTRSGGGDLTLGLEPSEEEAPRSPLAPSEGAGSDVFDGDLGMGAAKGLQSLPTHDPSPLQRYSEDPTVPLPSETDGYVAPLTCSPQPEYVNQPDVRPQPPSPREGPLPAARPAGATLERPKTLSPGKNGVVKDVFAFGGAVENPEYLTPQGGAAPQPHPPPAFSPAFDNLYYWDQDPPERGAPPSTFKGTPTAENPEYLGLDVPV

Structure (SMILES)	IC50 [2, 5] [nM]	IC50 [2, 6] [nM]	IC50 [3] [nM]	further results
C=CC(=O)Nc1ccc2ncnc(Nc3ccc(OCc4cccc(F)c4)c(Cl)c3)c2c1 [Example 8, N-{4-[3-chloro-4-(3-fluorobenzyloxy)-phenylamino]-quinazolin6-yl}-acrylamide]	< 1000	180	1	inhibition % ([1]; 25 mg/kg ig × 13, by tumor weight): 29.99%; Weight of the tumor (g) x ± SD ([1]; 25 mg/kg ig × 13, day 23 after grafting): 0.79 ± 0.20 g; Weight of the test animals (g) (tumor-off) ([1]; 25 mg/kg ig × 13, nude mouse A431 graft): 21.58 ± 2.18 g; inhibition % ([1]; 50 mg/kg ig × 13, by tumor weight): 38.67%; Weight of the tumor (g) x ± SD ([1]; 50 mg/kg ig × 13, day 23 after grafting): 0.69 ± 0.17 g; Weight of the test animals (g) (tumor-off) ([1]; 50 mg/kg ig × 13, nude mouse A431 graft): 22.87 ± 3.96 g; inhibition % ([1]; 100 mg/kg ig × 13, by tumor weight): 43.63%; Weight of the tumor (g) x ± SD ([1]; 100 mg/kg ig × 13, day 23 after grafting): 0.64 ± 0.23 g; Weight of the test animals (g) (tumor-off) ([1]; 100 mg/kg ig × 13, nude mouse A431 graft): 22.13 ± 1.83 g; IC50 [2, 4]: 110 nM; inhibitory activity on phosphorylation of Erb-B2 compared with Iressa (Erb-B2): more superior inhibitory activity
Cc1ccc(S(=O)(=O)Nc2ccc3ncnc(Nc4ccc(OCc5cccc(F)c5)c(Cl)c4)c3c2)cc1 [Example 9, N-{4-[-3-chloro-4-(3-fluorobenzyloxy)-phenylamino]-quinazolin-6-yl}-p-methylbenzenesulfonamide]	1000 to 10000	1220	280	
CN(C)C/C=C/C(=O)Nc1ccc2ncnc(Nc3ccc(OCc4cccc(F)c4)c(Cl)c3)c2c1 [Example 10, N-{4-[3-chloro-4-(3-fluorobenzyloxy)-phenylamino]-quinazolin-6-yl}-E,4-(dimethylamino)-but-2-enamide]	10000 to 50000			
CN(C)C/C=C/C(=O)Nc1cc2c(Nc3ccc(OCc4cccc(F)c4)c(Cl)c3)ncnc2cc1OCC(F)(F)F [Example 12]	< 1000			
COc1cc2ncnc(Nc3ccc(OCc4cccc(F)c4)c(Cl)c3)c2cc1NC(=O)/C=C/CN(C)C [Example 13, N-{4-[3-chloro-4-(3-fluorobenzyloxy)-phenylamino]-7-methoxy-quinazolin-6-}-E-4-(dimethylamino)-but-2-enamide]	1000 to 10000			
C=CC(=O)Nc1cc2c(Nc3ccc(OCc4cccc(F)c4)c(Cl)c3)ncnc2cc1OC [Example 14]	1000 to 10000	1720	6.9	inhibitory activity on phosphorylation of Erb-B2 compared with Iressa (Erb-B2): more superior inhibitory activity
CN(C)C/C=C/C(=O)Nc1cc2c(Nc3ccc(OCc4cccc(F)c4)c(Cl)c3)ncnc2cc1Cl [Example 15, N-{4-[3-chloro-4-(3-fluorobenzyloxy)-phenylamino]-7-chloro-quinazolin-6-yl}-E,4-(dimethylamino)-but-2-enamide]	1000 to 10000			
C=CC(=O)Nc1cc2c(Nc3ccc(OCc4cccc(F)c4)c(Cl)c3)ncnc2cc1Cl [Example 16, N-{4-[3-chloro-4-(3-fluorobenzyloxy)-phenylamino]-7-chloro-quinazolin-6-yl}-acrylamide]	1000 to 10000			
CC(=O)Oc1ccc2ncnc(Nc3ccc(OCc4cccc(F)c4)c(Cl)c3)c2c1 [Example 17, O-{4-[-3-chloro-4-(3-fluorobenzyloxy)-phenylamino]-quinazolin-6-yl}-acetate]	< 1000	3480	43	
Oc1ccc2ncnc(Nc3ccc(OCc4cccc(F)c4)c(Cl)c3)c2c1 [Example 18, 4-[3-chloro-4-(3-fluorobenzyloxy)-phenylamino]-6-hydroxy-quinazoline]	10000 to 50000			
COCCOc1ccc2ncnc(Nc3ccc(OCc4cccc(F)c4)c(Cl)c3)c2c1 [Example 19]	1000 to 10000	3290	88	IC50 [2, 4]: 1700 nM
Fc1cccc(COc2ccc(Nc3ncnc4ccc(OCCCN5CCOCC5)cc34)cc2Cl)c1 [Example 20, 4-[3-chloro-4-(3-fluorobenzyloxy)-phenylamino]-6-[3-(4-morpholino)-propoxy]-quinazoline]	< 1000	1690	79	
COc1cc2ncnc(Nc3ccc(OCc4cccc(F)c4)c(Cl)c3)c2cc1OC [Example 21, 4-[3-chloro-4-(3-fluorobenzyloxy)-phenylamino]-6,7-dimethoxy-quinazoline]	1000 to 10000	2210	190	
Fc1cccc(COc2ccc(Nc3ncnc4ccc(Br)cc34)cc2Cl)c1 [Example 22, 4-[3-chloro-4-(3-fluorobenzyloxy)-phenylamino]-6-bromo-quinazoline]	10000 to 50000			
COc1ccc(-c2ccc3ncnc(Nc4ccc(OCc5cccc(F)c5)c(Cl)c4)c3c2)cc1 [Example 23, 4-[3-chloro-4-(3-fluorobenzyloxy)-phenylamino]-6-(4-methoxy-phenyl)-quinazoline]	10000 to 50000	24000	170	
OCc1cccc(-c2ccc3ncnc(Nc4ccc(OCc5cccc(F)c5)c(Cl)c4)c3c2)c1 [Example 24, 4-[3-chloro-4-(3-fluorobenzyloxy)-phenylamino]-6-(3-hydroxymethyl-phenyl)-quinazoline]	1000 to 10000	3870	86	
CC(=O)OCc1cccc(-c2ccc3ncnc(Nc4ccc(OCc5cccc(F)c5)c(Cl)c4)c3c2)c1 [Example 25, 4-[3-chloro-4-(3-fluorobenzyloxy)-phenylamino]-6-(3-acetoxymethyl-phenyl)-quinazoline]	< 1000		62	
COCCOCc1cccc(-c2ccc3ncnc(Nc4ccc(OCc5cccc(F)c5)c(Cl)c4)c3c2)c1 [Example 26, 4-[3-chloro-4-(3-fluorobenzyloxy)-phenylamino]-6-[3-(methoxyethoxymethylene)-phenyl]-quinazoline]	1000 to 10000	4040	6630	
OCc1ccc(-c2ccc3ncnc(Nc4ccc(OCc5cccc(F)c5)c(Cl)c4)c3c2)o1 [Example 27, 4-[3-chloro-4-(3-fluorobenzyloxy)-phenylamino]-6-(5-hydroxymethyl-furan-2-yl)-quinazoline]	1000 to 10000	1530	23	IC50 [2, 4]: 1030 nM
CS(=O)(=O)OCc1ccc(-c2ccc3ncnc(Nc4ccc(OCc5cccc(F)c5)c(Cl)c4)c3c2)o1 [Example 28, 4-[3-chloro-4-(3-fluorobenzyloxy)-phenylamino]-6-(5-methanesulfonyloxymethylene-furan-2-yl)-quinazoline]	1000 to 10000	2030	49	
CN(C)Cc1ccc(-c2ccc3ncnc(Nc4ccc(OCc5cccc(F)c5)c(Cl)c4)c3c2)o1 [Example 29, 4-[3-chloro-4-(3-flurobenzyloxy)-phenylamino]-6-(5-dimethylaminomethyl-furan-2-yl)-quinazoline]	1000 to 10000			
COc1cc2ncnc(Nc3ccc(OCc4cccc(F)c4)c(Cl)c3)c2cc1OCCCN1CCOCC1 [Example 30, 4-[3-chloro-4-(3-fluorobenzyloxy)-phenylamino]-6-(3-(4-morpholino)propoxy)-7-methoxy-quinazoline]	1000 to 10000	9260	240	
